Among the data in US9150837B2, “Polyethylene glycolated superoxide dismutase mimetics” (Galera Therapeutics, LLC, priority 2004, dated 2015) are inhibition of hyperalgesia values, retold here.

The assay deals with carrageenan-induced hyperalgesia. To be noted: 0.1 mg/kg, s.c.

Protocol: Male Sprague-Dawley rats (175-200 g, Harlan Sprague Dawley, Indianapolis, Ind., USA) were housed and cared for in accordance with the guidelines of the Institutional Animal Care and Use Committee and in accordance with NIH guidelines on laboratory animal welfare. Rats received a subplantar injection of carrageenan (0.1 ml of a 1% suspension in 0.85% saline) into the right hind paw. A hyperalgesic response to heat was determined in the animals by Hargreaves' method (Hargreaves et al., 1988). Rats were individually confined and acclimated to Plexiglas chambers for 30 min. A mobile unit consisting of a high intensity projector bulb was positioned to deliver a thermal stimulus directly to an individual hind paw from beneath the chamber. The withdrawal latency period of injected and contralateral paws was determined to the nearest 0.1 sec with an electronic clock circuit and thermocouple. […] Each point will represent the change in withdrawal latency compared with control measurements taken prior to carrageenan injection.

Take `CN1CC[C@]23c4c5ccc(O)c4O[C@H]2[C@@H](O)C=C[C@H]3[C@H]1C5` [morphine]: the inhibition of hyperalgesia entry is listed as “modest inhibition of hyperalgesia”.
